These results are taken from ChEMBL document CHEMBL5120821, “Diterpenoids from Sauropus spatulifolius Leaves with Antimicrobial Activities” (2022).

One test deals with Bacillus subtilis. The test can be described thus: Antibacterial activity against Bacillus subtilis ATCC 6633 assessed as bacterial growth inhibition incubated for 18 hrs by microdilution method. The class given is functional. For orientation: Broth dilution looks for growth in wells or tubes with falling amounts of substance.
In another test the test system is Shigella flexneri. The test is described as follows: Antibacterial activity against Shigella flexneris ATCC 12022 assessed as bacterial growth inhibition incubated for 18 hrs by microdilution method. The class given is functional.
The test system of the next test is Escherichia coli. The test can be described thus: Antibacterial activity against Escherichia coli ATCC 25922 assessed as bacterial growth inhibition incubated for 18 hrs by microdilution method. The format is functional.
The subject of a further test is Streptococcus pneumoniae. The test can be described thus: Antibacterial activity against Streptococcus pneumoniae ATCC 49619 assessed as bacterial growth inhibition incubated for 18 hrs by microdilution method. The class given is functional.
Test [1] deals with Staphylococcus epidermidis. The test is described as follows: Antibacterial activity against Staphylococcus epidermidis ATCC 12228 assessed as bacterial growth inhibition incubated for 18 hrs by microdilution method. The format is functional.
Another test deals with Micrococcus luteus. The test can be described thus: Antibacterial activity against Micrococcus luteus ATCC 9341 assessed as bacterial growth inhibition incubated for 18 hrs by microdilution method. The class given is functional.
Another test concerns Staphylococcus aureus. The test is described as follows: Antibacterial activity against Staphylococcus aureus ATCC 25923 assessed as bacterial growth inhibition incubated for 18 hrs by microdilution method. The format is functional.
Test [2] has as its system Vesicular stomatitis virus. The test can be described thus: Antiviral activity against GFP transfected VSV infected in MDCK cells assessed as inhibition of viral replication at MOI of 0.1 at 10 uM preincubated for 8 hrs followed by infected with virus incubated for 24 hrs by flow cytometry (reference value: 51.3+/-1.1%). On the set-up: scale not given: the % may be the effect or the level left. The class given is functional. Conditions: time 32 hrs. Background: Flow cytometry measures light scatter and fluorescence of single cells or particles in a stream.

For test [3], the system named is Vesicular stomatitis virus. The test can be described thus: Antiviral activity against GFP transfected VSV infected in MDCK cells assessed as inhibition of viral replication at MOI of 0.1 at 10 uM preincubated for 8 hrs followed by infected with virus incubated for 24 hrs by fluorescence microscope analysis. The class given is functional, organism-based. Conditions: time 32.0 hrs.

The test system of the next test is Influenza A virus. The test is described as follows: Antiviral activity against PR8-GFP transfected IAV infected in MDCK cells assessed as inhibition of viral replication at MOI of 0.01 at 10 uM preincubated for 8 hrs followed by infected with virus incubated for 24 hrs by fluorescence microscope analysis. The format is functional, organism-based. Conditions: time 32.0 hrs.

The term MIC denotes the least concentration at which growth counts as inhibited.

Each structure is given as a SMILES string. Converted amounts (≈) assume the structure as drawn. The source made the active and inactive calls. The rule behind the calls is not given here.

On to `CC[C@H]1OC(=O)[C@H](C)[C@@H](O[C@H]2C[C@@](C)(OC)[C@@H](O)[C@H](C)O2)[C@H](C)[C@@H](O[C@@H]2O[C@H](C)C[C@H](N(C)C)[C@H]2O)[C@](C)(OC)C[C@@H](C)C(=O)[C@H](C)[C@@H](O)[C@]1(C)O` [CLARITHROMYCIN], for which the minimal inhibitory concentration (MIC) is less than 0.125 µg/mL in the test with Bacillus subtilis; less than 0.125 µg/mL in the test on Shigella flexneri; 2 µg/mL (≈ 2.67 µM) with Escherichia coli; less than 0.125 µg/mL in the test on Streptococcus pneumoniae; 0.25 µg/mL (≈ 0.334 µM) in test [1]; less than 0.125 µg/mL in the test on Micrococcus luteus. In addition, in the test on Staphylococcus aureus, the MIC was determined as 0.25 µg/mL (≈ 0.334 µM).

Consider `Cc1ccc2c(c1)CC[C@@H]1C(C)(C)[C@H](O)[C@H](O)C[C@@]21C`, for which the MIC (with Bacillus subtilis; in the test with Shigella flexneri; in the test on Escherichia coli; with Streptococcus pneumoniae; in test [1]; with Micrococcus luteus) was greater than 64 µg/mL throughout. In the test with Staphylococcus aureus, the MIC is greater than 64 µg/mL.

Consider `CC1=CC2=CC[C@@H]3C(C)(C)[C@H](O)[C@H](O)C[C@@]3(C)[C@@H]2CC1=O`, for which the MIC (in the test on Bacillus subtilis; in the test on Shigella flexneri; in the test on Escherichia coli; in the test with Streptococcus pneumoniae; in test [1]; with Micrococcus luteus) was greater than 64 µg/mL each time. For the same compound, the MIC with Staphylococcus aureus is greater than 64 µg/mL.

For the compound `Cc1cc2c(cc1O)[C@]1(C)C[C@@H](O)[C@@H](O)C(C)(C)C1=CC2=O`, the MIC (with Bacillus subtilis; in the test with Shigella flexneri; with Escherichia coli; with Streptococcus pneumoniae; in test [1]; with Micrococcus luteus) was greater than 64 µg/mL throughout. In addition, in the test on Staphylococcus aureus, the MIC was greater than 64 µg/mL.

On to `C=Cc1ccc2c(c1)CC[C@@H]1C(C)(C)[C@H](O)[C@H](O)C[C@@]21C`, for which the MIC (in the test on Bacillus subtilis; in the test with Shigella flexneri; in the test with Escherichia coli; in the test with Streptococcus pneumoniae; in test [1]; with Micrococcus luteus) was greater than 64 µg/mL throughout. In the test with Staphylococcus aureus, the MIC was greater than 64 µg/mL.

For the compound `C=Cc1c(C)c(O)cc2c1CC[C@@H]1C(C)(C)[C@H](O)[C@H](O)C[C@@]21C`, the Activity in test [2] turned out to be 3.4%. Further, the outcome (in test [3]; in the test on Influenza A virus) was Active. The MIC in the test with Bacillus subtilis was 12 µg/mL (≈ 37.9 µM); in the test with Shigella flexneri, 12 µg/mL (≈ 37.9 µM); in the test with Escherichia coli, greater than 64 µg/mL; with Streptococcus pneumoniae it was 16 µg/mL (≈ 50.6 µM); in test [1], 12 µg/mL (≈ 37.9 µM); in the test on Micrococcus luteus it was 16 µg/mL (≈ 50.6 µM). Also, the MIC with Staphylococcus aureus is 12 µg/mL (≈ 37.9 µM).

Regarding `C=CC1=C(C)C(=O)C=C2[C@]1(O)CC[C@@H]1C(C)(C)[C@H](O)[C@H](O)C[C@@]21C`, the MIC (with Bacillus subtilis; in the test on Shigella flexneri; in the test with Escherichia coli; in the test on Streptococcus pneumoniae; in test [1]; in the test with Micrococcus luteus) was greater than 64 µg/mL throughout. The MIC in the test with Staphylococcus aureus is greater than 64 µg/mL.

As for `Cc1cc2c(cc1O)[C@]1(C)C[C@@H](O)[C@@H](O)C(C)(C)[C@H]1CC2=O`, the MIC (with Bacillus subtilis; in the test on Shigella flexneri; in the test with Escherichia coli; with Streptococcus pneumoniae; in [1]; with Micrococcus luteus) was greater than 64 µg/mL each time. Also, the MIC in the test with Staphylococcus aureus is greater than 64 µg/mL.

For `Cc1cc2c(cc1O)[C@]1(C)C[C@@H](O)[C@@H](O)C(C)(C)[C@H]1CC2`, the MIC with Bacillus subtilis is 32 µg/mL (≈ 110 µM); in the test with Shigella flexneri it was 32 µg/mL (≈ 110 µM); in the test on Escherichia coli, greater than 64 µg/mL; with Streptococcus pneumoniae, 32 µg/mL (≈ 110 µM); in test [1], 32 µg/mL (≈ 110 µM); in the test with Micrococcus luteus it was 32 µg/mL (≈ 110 µM). For the same compound, the MIC with Staphylococcus aureus worked out at 32 µg/mL (≈ 110 µM).
